US12295964B2, “Treating pain associated with chemotherapy-induced peripheral neuropathy” (MEDICON PHARMACEUTICALS, INC., priority 2021, dated 2025)
Where “and” joins values, the source holds several entries; their conditions need not be identical. Equal values may be shown once. Read-outs that look alike come from different tables or passages of the source. One block for each compound: values may come before it.

What was measured:
[1] = tested on: paclitaxel-induced CIPN in C57/BL mice; assay: Prevention of neuropathic pain in paclitaxel mouse model of CIPN, paw withdrawal threshold (von Frey); type: in vivo; conditions: day 6 after first paclitaxel (10 mg/kg ip daily x5); PS 8% hydrogel topically to both hind paws 3 times a day for 7 days, started 2 days before paclitaxel
Description: In order to establish CIPN, paclitaxel is administered at 10 mg/kg intraperitoneally into C57/BL mice. […] This dosing regimen of paclitaxel produces pain associated with CIPN with time courses that are similar to those of pain after paclitaxel administration in cancer patients.
The first doses were administered 2 days prior to the first administration of paclitaxel.
In particular, a simplified up-down method for estimating paw withdrawal threshold (PWT) using von Frey filaments was used (as described in Bonin et al., Molecular Pain (2014); 10(26):1-10)). The results of the PWT test are expressed as force applied (gm).

[2] = tested on: paclitaxel-induced CIPN in mice; assay: Cold allodynia (acetone test) in paclitaxel-induced CIPN; type: in vivo, mouse
Description: For cold allodynia, mice with paclitaxel-induced CIPN were treated with PS 5% or vehicle for 15 days after the induction of CIPN. The acetone test was used. Briefly, acetone was applied onto the plantar surface of each hind paw. The time each mouse spent licking, lifting, and/or shaking the hind paw recorded over 60 seconds was the score for cold allodynia. Measurements were performed on day-8 (before the first paclitaxel injection), the day of starting treatment (day 0) and then on day 15.

[3] = tested on: paclitaxel-induced CIPN in C57BL/6J mice; assay: Treatment of paclitaxel-induced CIPN, mechanical allodynia (von Frey test)
Description: Adult male C57BL/6J mice, 8 weeks of age at the beginning of the experiments and weighing 20-30 g, were purchased from The Jackson Laboratory (Bar Harbor, ME). Mice were housed in an AAALAC-accredited facility in groups of four. Food and water were available ad libitum. The mice in each cage were randomly allocated to treatment groups. All studies were conducted by experimenters blinded to the identity of the treatment groups. Experiments were performed during the light cycle (7:00 am to 7:00 pm) and animals were euthanized with CO2 asphyxiation. Studies were approved by the relevant Institutional Animal Care and Use Committee and followed the National Institutes of Health Guidelines for the Care and Use of Laboratory Animals. Animal studies are reported in compliance with the ARRIVE guidelines.
CIPN was induced in mice with three different chemotherapeutic compounds using established protocols (Carozzi et al., Exp Neurol (2010); 226:301-309; Currie et al., PLOS Biol (2019); 17:e3000243; Eldridge et al., Toxicol Pathol (2020); 48:190-201). Each of the three chemotherapeutic compounds were prepared and dosed as follows. • Paclitaxel: paclitaxel (purchased from MilliporeSigma (St. Louis, MO)) was dissolved in a mixture of 1 volume ethanol/1 volume Cremophor EL (EMD Millipore Corp, Burlington, MA)/18 volumes distilled water. Paclitaxel was administered as four intraperitoneal injections of 8 mg/kg paclitaxel (in a volume of 1 ml/100 g body weight) every other day, resulting in a cumulative dose of 32 mg/kg. • Oxaliplatin: Oxaliplatin was dissolved in ddH2O.
Mechanical allodynia was measured at the time points recorded in the figures.
Mechanical allodynia thresholds were determined using von Frey filaments according to an established method (Chaplan et al., J Neurosci Methods (1994); 53:55-63; Bagdas et al., Biochem Pharmacol (2015); 97:590-600). Briefly, mice were placed in a quiet room for 30 min and then were put in a Plexiglas cage with mesh metal flooring and allowed to acclimatise for 30 min before testing. A series of calibrated von Frey filaments (Stoelting, Wood Dale, IL) with incremental stiffness were applied perpendicularly to the paw with sufficient force to cause slight bending and held 2-3 s. This process was repeated at each level of stiffness 5 times, a few seconds apart. Paw withdrawn, licking or shaking were considered positive responses. The mechanical threshold, expressed as g, indicates the force of the von Frey filament to which the animal reacted.
Results are expressed as mean±SEM. […] Analysis of variance (ANOVA) tests were conducted and followed by the Bonferroni post hoc test. Differences were determined to be significant at P<0.05.

[4] = tested on: paclitaxel-induced CIPN in C57/BL/6J mice; assay: Comparison with sulindac, lidocaine and pregabalin in paclitaxel CIPN, mechanical allodynia (PWT, von Frey)
Description: CIPN was established by administration of paclitaxel into C57/BL/6J mice. The paclitaxel was administered into all study groups below: • 1. Group 1: paclitaxel plus vehicle (n=8) • 2. […] Group 4: paclitaxel plus 0.7% sulindac (n=8) • 5. Group 5: paclitaxel plus 5% lidocaine cream (n=8) • 6.
Regarding the treatment with lidocaine: 5% lidocaine cream (a positive control) was applied once to both hind paws of the mice 30 minutes before measurement of PWT.
To determine the outcome of treatment, assessment of mechanical allodynia was performed. […] Mechanical and cold allodynia are determined at least one day apart in the same animal.
Briefly, for mechanical allodynia, pain threshold responses were measured using the well-established method of von Frey filaments in line with that performed in the earlier Examples. The PWT test was performed on day-8 (before the first dose of paclitaxel), the day of starting treatment (day 0, at which CIPN was fully established) and day 14 (treatment continued until day 15). The mechanical threshold, expressed as g, indicates the force of the von Frey filament to which the animal reacted.

[5] = tested on: paclitaxel-induced CIPN in C57BL/6J mice; assay: Prevention of paclitaxel-induced CIPN pain, mechanical allodynia (von Frey test); conditions: for mechanical allodynia score, mean±SEM: day 10, PS 8% ointment to hind paws started 2 days before first paclitaxel (8 mg/kg ip every other day x4)
[6] = PS and metabolites in proximal and distal half of the sciatic nerve of mice with paclitaxel-induced PN; type: in vivo, mouse; conditions: for concentration at 30 min: mean ± SEM
Description: In a separate experiment we studied 8 mice with paclitaxel-induced PN treated with PS 8% ointment 3×/d for 2 wks. Mice were euthanized as above 30 minutes after the last dose of PS. From these mice we harvested both sciatic nerves dividing each into proximal and distal halves, and combined the corresponding halves of every two animals for assay of drug levels.

[7] = Pharmacokinetics and biodistribution of topical PS in normal mice; type: in vivo, mouse; conditions: for Cmax: read-out: Cmax, μM mean ± SEM
Description: PS 8% ointment was applied topically to each hind paw (50 μl per paw) with gentle rubbing. At 0.5, 1, 3, 5, 12, 18, and 24 h, mice (n=4-5 mice/time point) were euthanized with CO2 inhalation. Blood was drawn immediately after death. Tissues, including paw skin, paw muscle, leg muscle, the sciatic nerve and lumbar DRG bilaterally were dissected quickly, immediately frozen in liquid nitrogen and stored at −80° C. until analyzed.

[8] = tested on: CIPN model; conditions: Hidaka et al. (2009); cited from earlier work
[9] = tested on: oxaliplatin-induced CIPN in C57BL/6J mice; assay: Treatment of oxaliplatin-induced CIPN, mechanical allodynia (von Frey test); type: in vivo, mouse
From the text: (§1) Food and water were available ad libitum.
(§2) Results are expressed as mean±SEM. […] Non-compartmental analyses were employed.

[10] = tested on: vincristine-induced CIPN in C57BL/6J mice; assay: Treatment of vincristine-induced CIPN, mechanical allodynia (von Frey test); type: in vivo, mouse
From the text: as §1, §2

[11] = tested on: mice; assay: Safety of PS ointment during the CIPN treatment studies; type: in vivo, mouse; conditions: PS ointment thrice daily to hind paws for up to 22 days
From the text: This finding is in keeping with the known safety profile of PS.

[12] = tested on: paclitaxel-induced CIPN in C57/BL mice; assay: Treatment of established neuropathic pain in paclitaxel mouse model of CIPN, PWT (von Frey); type: in vivo; conditions: day 10, about 30 min after last application; paclitaxel 10 mg/kg ip daily x3; PS 8% hydrogel to both hind paws 3 times a day for 10 days, started 2 days after last paclitaxel
Description: The first doses were administered 2 days after the last administration of paclitaxel.
The data is expressed as percent change from the respective baseline value.

[13] = target: T1, COX-2 (Homo sapiens, UniProt P35354); conditions: cited from earlier work
T1 sequence (P35354 18-604): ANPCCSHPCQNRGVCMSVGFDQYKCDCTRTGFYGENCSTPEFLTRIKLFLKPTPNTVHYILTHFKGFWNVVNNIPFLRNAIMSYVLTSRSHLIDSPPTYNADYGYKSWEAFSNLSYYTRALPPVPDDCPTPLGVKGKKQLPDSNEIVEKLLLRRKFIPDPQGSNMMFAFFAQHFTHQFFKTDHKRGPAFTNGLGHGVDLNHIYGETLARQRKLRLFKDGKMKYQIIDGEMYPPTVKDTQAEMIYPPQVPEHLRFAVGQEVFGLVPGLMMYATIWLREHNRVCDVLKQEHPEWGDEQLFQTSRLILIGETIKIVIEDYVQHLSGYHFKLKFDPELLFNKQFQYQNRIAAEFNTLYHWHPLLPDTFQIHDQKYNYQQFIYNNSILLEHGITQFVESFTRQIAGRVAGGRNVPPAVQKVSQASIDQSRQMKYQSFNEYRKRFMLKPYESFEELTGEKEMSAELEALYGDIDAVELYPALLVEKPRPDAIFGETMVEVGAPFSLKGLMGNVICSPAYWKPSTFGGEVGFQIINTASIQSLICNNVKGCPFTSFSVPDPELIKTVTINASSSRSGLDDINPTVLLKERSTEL

[14] = target: COX-1 (Homo sapiens, UniProt P23219); conditions: cited from earlier work
[15] = mouse, in vivo, Distal half of the sciatic nerve
[16] = mouse, in vivo, Proximal half of the sciatic nerve, μM
[17] = 30 min after last dose, PS 8% ointment 3x/d for 2 wks
[18] = DRG (dorsal root ganglia), normal mice, PS 8% ointment topically 50 μl per hind paw
[19] = SN (sciatic nerve), normal mice, PS 8% ointment topically 50 μl per hind paw
[20] = leg muscle, normal mice, PS 8% ointment topically 50 μl per hind paw
[21] = paw muscle, normal mice, PS 8% ointment topically 50 μl per hind paw
[22] = paw skin, normal mice, PS 8% ointment topically 50 μl per hind paw
[23] = 30 min after last dose, mice with paclitaxel-induced PN, PS 8% ointment 3x/d for 2 wks

Chain of COX-1 (P23219 24-599): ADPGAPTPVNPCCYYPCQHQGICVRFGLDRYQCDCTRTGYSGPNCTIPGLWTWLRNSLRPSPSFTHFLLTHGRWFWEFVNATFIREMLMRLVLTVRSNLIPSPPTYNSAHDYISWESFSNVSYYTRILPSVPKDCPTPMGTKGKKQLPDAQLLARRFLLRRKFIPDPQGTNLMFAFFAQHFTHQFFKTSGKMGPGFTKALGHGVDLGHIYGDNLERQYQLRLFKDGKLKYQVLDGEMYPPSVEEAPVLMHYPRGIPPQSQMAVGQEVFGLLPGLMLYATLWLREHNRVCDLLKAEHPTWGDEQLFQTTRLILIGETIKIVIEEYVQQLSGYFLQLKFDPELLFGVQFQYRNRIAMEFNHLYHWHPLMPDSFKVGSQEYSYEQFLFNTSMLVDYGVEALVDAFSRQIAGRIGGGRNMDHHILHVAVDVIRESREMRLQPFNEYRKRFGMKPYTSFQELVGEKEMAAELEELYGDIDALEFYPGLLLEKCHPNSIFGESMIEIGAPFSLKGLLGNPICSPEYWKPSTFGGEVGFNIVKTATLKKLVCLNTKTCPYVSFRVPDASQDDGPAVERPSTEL

cold allodynia score (acetone test), Mean±SEM ([2]; after paclitaxel treatment (4.5±0.24 sec before)): 7.1 ± 0.4 s | reduction of mechanical allodynia scores by the chemotherapeutic ([3]; paclitaxel administered over 12 days, vs baseline): ~85% | mechanical allodynia score, mean±SEM ([4]; day 0, CIPN fully established after paclitaxel (1.83±0.14 g before paclitaxel)): 0.55 ± 0.05 g | mechanical allodynia score lower than solvent control ([5]; day 10, paclitaxel group vs control): 53%
Compound: CC(=O)O[C@H]1C(=O)[C@@]2(C)[C@H]([C@H](OC(=O)c3ccccc3)[C@]3(O)C[C@H](OC(=O)[C@H](O)[C@@H](NC(=O)c4ccccc4)c4ccccc4)C(C)=C1C3(C)C)[C@]1(OC(C)=O)CO[C@@H]1C[C@@H]2O [Paclitaxel, paclitaxel, reference compound]
PWT, gm Mean ± SEM [1]: 0.3 ± 0.01 gm | mechanical allodynia score, mean±SEM [5]: 0.7 ± 0.17 g

Fold difference (distal vs proximal half of sciatic nerve) ([6]; mouse, in vivo, 30 min): 4.5-8.5 | concentration at 30 min [6, 15]: 3.5 ± 1 µM | concentration at 30 min [6, 16]: 0 µM
Compound: CSc1ccc(/C=C2/C(C)=C(CC(=O)O)c3cc(F)ccc32)cc1 [Sulindac sulfide, sulindac sulfide]

Compound: CC1=C(CC(=O)O)c2cc(F)ccc2/C1=C\c1ccc(S(C)(=O)=O)cc1 [Sulindac sulfone, sulindac sulfone]
Distal half of the sciatic nerve, mean ± SEM ([6]; mouse, in vivo): 0.9 ± 0.2 µM | Proximal half of the sciatic nerve, μM, mean ± SEM ([6]; mouse, in vivo): 0.2 ± 0.08 µM

Compound: CC1=C(CC(=O)O)c2cc(F)ccc2/C1=C\c1ccc([S+](C)[O-])cc1 (stereo not drawn) [Sulindac, sulindac, reference compound]
sulindac levels relative to those of PS ([7]; all tissues except the sciatic nerve (higher) and DRG (equal), topical PS 8% ointment): around 25% | Fold difference (distal vs proximal half of sciatic nerve) [6, 17]: 8.5 | concentration at 30 min [6, 15]: 3.4 ± 1.1 µM | concentration at 30 min [6, 16]: 0.4 ± 0.03 µM

Compound: CCN(CC)CC(=O)Nc1c(C)cccc1C [lidocaine, reference compound]
PWT, g Mean ± SEM ([4]; 5% lidocaine cream applied once to both hind paws 30 minutes before measurement): 1.48 ± 0.12 g

Compound: CC(C(=O)O)c1ccc(CC2CCCC2=O)cc1 (stereo not drawn) [loxoprofen sodium]
reducing pain signalling in CIPN model [8]: ineffective

Compound: O=C1[O][Pt]2([NH][C@@H]3CCCC[C@H]3[NH]2)[O]C1=O [oxaliplatin]
reduction of allodynia score by the chemotherapeutic ([9]; at day 0, two study groups respectively): 65% and 56%

mechanical allodynia score, mean±SEM ([10]; day 0, after vincristine, all three groups): 0.7 ± 0.07 g | reduction of mechanical allodynia score by the chemotherapeutic ([10]; day -7 vs day 0, three vincristine groups): 61%-65%
Compound: CC[C@]1(O)C[C@H]2CN(CCc3c([nH]c4ccccc34)[C@@](C(=O)OC)(c3cc4c(cc3OC)N(C=O)[C@H]3[C@@](O)(C(=O)OC)[C@H](OC(C)=O)[C@]5(CC)C=CCN6CC[C@]43[C@@H]65)C2)C1 [vincristine, reference compound]

Compound: phosphosulindac [PS]
topical or systemic side effects [11]: no topical or systemic side effects | mechanical allodynia score, mean±SEM ([9]; after PS 8% ointment 3x/day (day 22) vs day -15 baseline): 1.8 ± 0.09 g | PWT, % baseline Mean ± SEM [12]: 102.55 ± 4.92 % baseline | PWT, gm Mean ± SEM [1]: 0.4 ± 0.01 gm | cold allodynia score (acetone test), Mean±SEM ([2]; PS 5% for 15 days after induction of CIPN, day 15, vehicle 9.3±0.7): 3.1 ± 0.4 s | AUC0-24 h [7, 18]: 4.5 µM·h | Tmax [7, 18]: 18 h | Cmax [7, 18]: 0.3 ± 0.1 µM | AUC0-24 h [7, 19]: 12.0 µM·h | T1/2, h [7, 19]: 57.4 h | Tmax [7, 19]: 0.5 h | Cmax [7, 19]: 0.9 ± 0.1 µM | presence in the systemic circulation ([7]; blood after topical PS 8% ointment, limit of quantitation 0.1 μM for PS): no PS was detected | AUC0-24 h [7, 20]: 171.6 µM·h | T1/2, h [7, 20]: 20.6 h | Tmax [7, 20]: 0.5 h | Cmax [7, 20]: 35 ± 3.6 µM | AUC0-24 h [7, 21]: 411.2 µM·h | T1/2, h [7, 21]: 11.4 h | Tmax [7, 21]: 0.5 h | Cmax [7, 21]: 102 ± 4.6 µM | AUC0-24 h, μM · h [7, 22]: 1,609.8 μM · h | T1/2, h [7, 22]: 16.1 h | Tmax [7, 22]: 0.5 h | Cmax [7, 22]: 195 ± 5.3 µM | t1/2 of the skin and the muscles ([7]; range over paw skin, paw muscle, leg muscle, topical PS 8% ointment): 11.4 to 20.6 h | increase of allodynia score compared to day 0 ([10]; PS treatment for 16 days): 114% | mechanical allodynia score, mean±SEM ([10]; day 16, PS 8% ointment to hind paws 3x/day (vincristine alone group: no topical treatment)): 1.5 ± 0.09 g | mechanical allodynia score, mean±SEM ([3]; day 0 (initiation of topical treatment, CIPN established)): 0.79 ± 0.08 g | mechanical allodynia score, mean±SEM ([3]; day 5, PS 8% ointment to hind paws 3x/day): 1.17 ± 0.07 g | mechanical allodynia score, mean±SEM ([3]; day 16, PS 8% ointment to hind paws 3x/day (paclitaxel only group: no topical treatment)): 2.49 ± 0.18 g | PWT, g Mean ± SEM ([4]; PS 1.2% to both hind paws 3 times a day from day 0, measured day 14): 0.98 ± 0.06 g | PWT, g Mean ± SEM ([4]; PS hydrogel 5% to both hind paws 3 times a day from day 0, measured day 14): 1.24 ± 0.07 g | inhibition of COX-2 expression [13]: does not inhibit | topical or systemic side effects ([5]; PS ointment, prevention study): no topical or systemic side effects | mechanical allodynia score, mean±SEM [5]: 1.2 ± 0.15 g | inhibition of COX-1 expression [14]: does not inhibit | Fold difference (distal vs proximal half of sciatic nerve) [6, 17]: 18.5 and 18.9 | Distal half of the sciatic nerve, mean ± SEM [6, 23]: 17 ± 5.1 µM | Proximal half of the sciatic nerve, μM, mean ± SEM [6, 23]: 0.9 ± 0.3 µM
